# Source: ChEMBL document CHEMBL1201862, “PubChem BioAssay data set” (2004)
#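 Cultured in 96-well plates, cells were exposed to test compound for 48 hours across five concentrations. The concentration for 50% growth inhibition is given as GI50.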 The source made the active and inactive calls. Cut-off read from the data, not from the text of the source: active = GI50 up to about 1.1 µM and inactive = higher.
# Experiments:
# Test in all cases: growth of human tumour cells (NCI), 48 h
# [1] = test system: Malme-3M
# [2] = test system: SR
# [3] = test system: U-251
# [4] = test system: SN12C
# [5] = test system: NCI-H460
# [6] = test system: M14
# [7] = test system: K562
# [8] = test system: OVCAR-5
# [9] = test system: SK-MEL-28
# [10] = test system: SW-620
# [11] = test system: SF-268
# [12] = test system: HCT-15
# [13] = test system: CAKI-1
# [14] = test system: RPMI-8226
# [15] = test system: RXF 393
SMILES,GI50 [1],GI50 [2],GI50 [3],GI50 [4],GI50 [5],GI50 [6],GI50 [7],GI50 [8],GI50 [9],GI50 [10],GI50 [11],GI50 [12],GI50 [13],GI50 [14],GI50 [15]
Clc1ccc(C[P+](c2ccccc2)(c2ccccc2)c2ccccc2)cc1Cl,2.53 µM (inactive),2.61 µM (inactive),1.63 µM (inactive),4.04 µM (inactive),2.34 µM (inactive),2.6 µM (inactive),4.31 µM (inactive),5.27 µM (inactive),3.67 µM (inactive),2.93 µM (inactive),3.22 µM (inactive),17 µM,2.57 µM (inactive),,
Cn1c(/C=C/CO)c(CO)c2c1C(=O)C=C(N1CC1)C2=O [APAZIQUONE],< 0.01 µM (active),,< 0.01 µM (active),< 0.01 µM (active),< 0.01 µM (active),,0.0195 µM (active),< 0.0122 µM (active),0.0198 µM (active),< 0.01 µM (active),0.0137 µM (active),< 0.01 µM,< 0.01 µM (active),0.0172 µM (active),< 0.01 µM (active)
O=C1OC(c2ccccc2)(c2ccccc2)c2ccc3ccc(F)cc3c21,> 100 µM (inactive),10.7 µM (inactive),77.1 µM (inactive),> 100 µM (inactive),> 100 µM (inactive),> 100 µM (inactive),6.28 µM (inactive),> 100 µM (inactive),> 100 µM (inactive),23.9 µM (inactive),> 100 µM (inactive),35.5 µM,33.3 µM (inactive),> 100 µM (inactive),> 100 µM (inactive)
CCCCCCCCCCNC(=S)OC,69.8 µM (inactive),13.7 µM (inactive),33.1 µM (inactive),26.7 µM (inactive),> 100 µM (inactive),63.1 µM (inactive),29.2 µM (inactive),,51.2 µM (inactive),42.8 µM (inactive),63 µM (inactive),24.4 µM,28.5 µM (inactive),13.2 µM (inactive),33.7 µM (inactive)
CC(C)c1cccc2sc(NC(=O)C(=O)CC(=O)c3ccc(F)cc3)nc12,> 100 µM (inactive),,> 100 µM (inactive),> 100 µM (inactive),> 100 µM (inactive),> 100 µM (inactive),> 100 µM (inactive),> 100 µM (inactive),> 100 µM (inactive),> 100 µM (inactive),> 100 µM (inactive),> 100 µM,> 100 µM (inactive),> 100 µM (inactive),> 100 µM (inactive)
CC(C)(C)OC(=O)NC(Cc1ccccc1)C(=S)N1CCCC1 (stereo not drawn),> 100 µM (inactive),,> 100 µM (inactive),> 100 µM (inactive),> 93.8 µM (inactive),> 100 µM (inactive),78.3 µM (inactive),> 100 µM (inactive),> 100 µM (inactive),> 100 µM (inactive),> 100 µM (inactive),75.5 µM,> 50.9 µM (inactive),31.1 µM (inactive),58.9 µM (inactive)
CC(=O)OCc1cc(=O)n(C)c2c3c4c(cc12)c(C)cc(=O)n4CO3,0.906 µM (active),,1.23 µM (inactive),1.66 µM (inactive),0.52 µM (active),,1.14 µM (inactive),2.73 µM (inactive),1.64 µM (inactive),0.489 µM (active),0.782 µM (active),1.95 µM,1.95 µM (inactive),1.51 µM (inactive),1.3 µM (inactive)
CC(=O)c1cc([N+](=O)[O-])ccc1OCC(=O)O,> 100 µM (inactive),,> 100 µM (inactive),> 100 µM (inactive),> 100 µM (inactive),> 100 µM (inactive),> 100 µM (inactive),> 100 µM (inactive),> 100 µM (inactive),> 100 µM (inactive),> 100 µM (inactive),> 100 µM,> 100 µM (inactive),> 100 µM (inactive),> 100 µM (inactive)
OCCN1CCN(CC/C=C2/c3ccccc3Sc3ccc(Cl)cc32)CC1,5.33 µM (inactive),12.1 µM (inactive),12.9 µM (inactive),13.2 µM (inactive),5.93 µM (inactive),2.3 µM (inactive),2.56 µM (inactive),17.1 µM (inactive),1.87 µM (inactive),12 µM (inactive),14.6 µM (inactive),13.4 µM,10.5 µM (inactive),9.82 µM (inactive),13.1 µM (inactive)
NCCCNCCSP(=O)(O)O [AMIFOSTINE],> 335 µM (inactive),,> 750 µM (inactive),> 750 µM (inactive),> 750 µM (inactive),,> 750 µM (inactive),> 750 µM (inactive),> 750 µM (inactive),> 750 µM (inactive),> 750 µM (inactive),> 274 µM,> 678 µM (inactive),> 452 µM (inactive),> 736 µM (inactive)
